target: T1, Muscarinic acetylcholine receptor M1 (Homo sapiens, UniProt P11229); assay: Antagonist activity at human recombinant muscarinic receptor M1 expressed in CHO-K1 cells assessed as EC80 acetylcholine-induced calcium flux incubated for 30 mins
T1 sequence (P11229 whole entry): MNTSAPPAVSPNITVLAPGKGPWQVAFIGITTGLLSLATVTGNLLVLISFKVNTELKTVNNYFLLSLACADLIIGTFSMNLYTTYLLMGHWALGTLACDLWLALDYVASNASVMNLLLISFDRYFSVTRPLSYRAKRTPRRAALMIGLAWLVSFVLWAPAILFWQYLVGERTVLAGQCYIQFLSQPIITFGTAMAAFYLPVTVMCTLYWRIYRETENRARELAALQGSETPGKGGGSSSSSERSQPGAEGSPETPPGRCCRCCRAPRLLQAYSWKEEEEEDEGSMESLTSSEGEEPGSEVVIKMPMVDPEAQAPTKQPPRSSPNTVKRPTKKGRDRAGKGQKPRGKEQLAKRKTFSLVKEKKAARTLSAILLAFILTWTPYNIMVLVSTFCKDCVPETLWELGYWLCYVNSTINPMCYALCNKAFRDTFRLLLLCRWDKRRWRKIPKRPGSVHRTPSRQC

Row | Structure (SMILES) | IC50 [µM]
1 | N#Cc1ccc(N2C3CCC2CN(C(=O)CCS(=O)(=O)c2cccc4ncsc24)C3)nc1 | 0.0016
2 | Cc1cc(F)cnc1N1CCN(C(=O)COCc2cccc3ncsc23)[C@@H](C)C1 | 3.98
3 | N#Cc1cnccc1N1CCN(C(=O)CCCc2cccc3ncccc23)CC1 | 1.25

Continued by falling IC50, values first:

Row | IC50 [µM] | Structure (SMILES)
4 | 0.0794 | Cc1cc(F)cnc1N1CCN(C(=O)CCS(=O)(=O)c2cccc3ncsc23)[C@@H](C)C1
5 | 0.032 | N#Cc1ccc(N2CC3CCC2CN3C(=O)CCS(=O)(=O)c2cccc3ncsc23)nc1 (stereo not given)
